Columns and labels:
[1] = Toxicity: survival/mortality of mice after intravenous administration or injections; assay type: in vivo; conditions: mouse, in vivo; intravenous, three successive doses of 10 mg/kg/day; read-out: mice that do not survive for 15 days
Experimental: (§1) Several toxicity measurements are carried out with suspensions of particles obtained by this process.

mice = test: as above; assay type: in vivo; conditions: three injections of 12.5 mg/kg/day; result in words
Experimental: as §1

In the case of COc1cccc2c1C(=O)c1c(O)c3c(c(O)c1C2=O)C[C@@](O)(C(=O)CO)C[C@@H]3O[C@H]1C[C@H](N)[C@H](O)[C@H](C)O1 [doxorubicin], the mortality at 360 h [1] is reported as 27.5% and the mice that survive (mice) is reported as “none of the mice survives”.

— US4913908A, “Preparation of submicroscopic particles, particles thus obtained and pharmaceutical compositions containing them” (N. V. Sopar S.A., priority 1981, dated 1990)
